Results reported in ChEMBL document CHEMBL5537161, “Structure-Guided Design, Synthesis, and Antivirulence Assessment of Covalent Staphylococcus aureus Sortase A Inhibitors” (J Med Chem, 2024).
Values after ≈ are worked out from the molar mass of the structure shown.

Assays:
[1] = target: T1, Sortase A (Staphylococcus aureus, UniProt Q9S446, N24DEL); test: Inhibition of Staphylococcus aureus sortase A N24 deletion mutant using Abz-LPATG-Dnp as substrate preincubated for 20 mins followed by substrate addition by FRET assay
[2] = test system: Staphylococcus aureus; test: Bactericidal activity against Staphylococcus aureus Newman assessed as reduction in bacterial growth incubated for 16 to 18 hrs; type: functional; details: time 16-18 hrs
[3] = target: T1, Sortase A; test: Inhibition of Staphylococcus aureus Sortase A N24 deletion mutant transpeptidation using IsdA64-323 as substrate preincubated for 20 mins followed by substrate addition and measured after 1.5 hrs by SDS-PAGE analysis

SMILES	IC50 [1]	MIC [2]	IC50 [3]
O=C1NC(=O)C(=C/C=C/c2ccc(OCc3ccc(Cl)cc3)cc2)C(=O)N1	2500 nM	> 128 µg/mL	
COc1ccc(/C(C#N)=C/C=C2C(=O)NC(=O)NC2=O)cc1	4700 nM	128 µg/mL (≈ 431 µM)	
O=C1NC(=O)C(=C/C=C/c2ccc(OCc3ccc(C(F)(F)F)cc3)cc2)C(=O)N1	6500 nM	> 128 µg/mL	
O=C1NC(=O)C(=CNc2ccc(Br)cc2)C(=O)N1	> 50000 nM	> 128 µg/mL	
CC(=O)Oc1ccc(/C=C/C=C2C(=O)NC(=O)NC2=O)cc1	1800 nM	> 128 µg/mL	
CC(C)C[C@H](NC(=O)OCc1ccccc1)C(=O)Oc1ccc(/C=C/C=C2C(=O)NC(=O)NC2=O)cc1	5600 nM	64 µg/mL (≈ 127 µM)	
O=C1NC(=O)C(=C/C=C/c2ccc(OC(=O)[C@H](CO)NC(=O)OCc3ccccc3)cc2)C(=O)N1	2500 nM	> 128 µg/mL	
COc1ccc(/C=C/C=C2C(=O)NC(=S)NC2=O)cc1	2800 nM	> 128 µg/mL	
O=C1NC(=O)C(=C/C=C/c2ccccc2Cl)C(=O)N1	2100 nM	128 µg/mL (≈ 463 µM)	
CC(C)(C)c1ccc(COc2ccc(/C=C/C=C3C(=O)NC(=O)NC3=O)cc2)cc1	> 50000 nM	128 µg/mL (≈ 316 µM)	
COc1ncc(/C=C/C=C2C(=O)NC(=O)NC2=O)cn1	7700 nM	> 128 µg/mL	
O=C1NC(=O)C(=C/C=C/c2ccc(OCc3ccccc3)cc2)C(=O)N1	500 nM	> 128 µg/mL	8900 nM
O=C1NC(=O)C(=C/C=C/c2ccc(OCC(=O)c3ccco3)cc2)C(=O)N1	800 nM	> 128 µg/mL	24600 nM
CCCOc1ccc(/C=C/C=C2C(=O)NC(=O)NC2=O)cc1	700 nM	> 128 µg/mL	8100 nM
COc1ccc(C=C2C(=O)NC(=O)NC2=O)cc1	> 50000 nM	> 128 µg/mL	
CN(C)c1ccc(/C=C/C=C2C(=O)NC(=O)NC2=O)cc1	> 50000 nM	> 128 µg/mL	
COC(=O)c1ccc(COc2ccc(/C=C/C=C3C(=O)NC(=O)NC3=O)cc2)cc1	> 50000 nM	> 128 µg/mL	
O=C1NC(=O)C(=C/C=C/c2ccco2)C(=O)N1	1400 nM	> 128 µg/mL	
CC(C)CCC(=O)Oc1ccc(/C=C/C=C2C(=O)NC(=O)NC2=O)cc1	1500 nM	128 µg/mL (≈ 359 µM)	
NC(=O)COc1ccc(/C=C/C=C2C(=O)NC(=O)NC2=O)cc1	900 nM	> 128 µg/mL	
N#Cc1ccc(COc2ccc(/C=C/C=C3C(=O)NC(=O)NC3=O)cc2)cc1	700 nM	> 128 µg/mL	
O=C1NC(=O)C(=C/C=C/c2ccc(OCc3ccsc3)cc2)C(=O)N1	700 nM	> 128 µg/mL	
O=C1NC(=O)C(=C/C=C/c2ccc(OC(=O)CNC(=O)OCc3ccccc3)cc2)C(=O)N1	1800 nM	> 128 µg/mL	
CCCCc1ccc(COc2ccc(/C=C/C=C3C(=O)NC(=O)NC3=O)cc2)cc1	> 50000 nM	> 128 µg/mL	
O=C1NC(=O)C(=C/C=C/c2ccccc2)C(=O)N1	1100 nM	> 128 µg/mL	8200 nM
O=C(CNC(=O)OCc1ccccc1)NCC(=O)Oc1ccc(/C=C/C=C2C(=O)NC(=O)NC2=O)cc1	1700 nM	32 µg/mL (≈ 63.2 µM)	
O=C1NC(=O)C(=Cc2ccc(-c3ccc(Br)cc3)o2)C(=O)N1	> 50000 nM	64 µg/mL (≈ 177 µM)	
